The text below walks through data of patent US11439708B2, “Nanotube trans-membrane channels mimicking biological porins” (LAWRENCE LIVERMORE NATIONAL SECURITY, LLC, priority 2014, dated 2022).

On the set-up of test [1]: unit not given here. As to conditions: literature value (ref 30); cited from earlier work.
The nature of test [2]: Single channel recordings of conductance in supported lipid bilayer. The format is biochemical. As to conditions: 1 M KCl, transmembrane potential 75 mV, positive control.

With gramicidin A, the “reported conductance of gramicidin” value in test [1] is given as 0.0459±0.005. For the same substance, the “conductance of Gramicidin channels” value in test [2] worked out at 0.058±0.008 nS.
